Source: patent US5413990A, “N-terminus modified analogs of LHRH” (Tap Pharmaceuticals Inc., priority 1993, dated 1995)
Numbered stars: 1 amine (or outer) side, 2 acyl side, 3 side chain; on linkers, the order of the positions; unused ones are H or OH. Square brackets hold non-standard residues; d marks the D form. Peptide text beside a SMILES is read from it. * marks the point of attachment. dPhe(4-Cl) = N[C@H](Cc1ccc(Cl)cc1)C(=O)O; NH(2-(2-pyridyl)ethyl) = c1ccc(CCN*)nc1; NH(2-morpholinoethyl) = C(CN1CCOCC1)N*; d2Nal = N[C@H](Cc1ccc2ccccc2c1)C(=O)O; NMeY = CN[C@@H](Cc1ccc(O)cc1)C(=O)O; NHCH2(2-pyridyl) = c1ccc(CN*)nc1; Piperazinyl(4-Me) = CN1CCN(*)CC1; dCit = NC(=O)NCCC[C@@H](N)C(=O)O; d3Pal = N[C@H](Cc1cccnc1)C(=O)O; NH(3-picolyl) = c1cncc(CN*)c1; CO = O=C([*:1])[*:2]

What follows are molecules tested against T1, LHRH (Rattus norvegicus, UniProt P30969) (assay: in vitro test for LHRH antagonist potency (pA2)). Details: negative logarithm of the antagonist concentration required to shift the response curve produced by the agonist leuprolide to two-fold higher concentration.
T1 construct: evaluated in an in vitro test for LHRH antagonist potency (pA2); endogenous in cells; host or cells: pituitary cells (rat, from my own knowledge of the cited method)
T1 sequence (P30969 1-327): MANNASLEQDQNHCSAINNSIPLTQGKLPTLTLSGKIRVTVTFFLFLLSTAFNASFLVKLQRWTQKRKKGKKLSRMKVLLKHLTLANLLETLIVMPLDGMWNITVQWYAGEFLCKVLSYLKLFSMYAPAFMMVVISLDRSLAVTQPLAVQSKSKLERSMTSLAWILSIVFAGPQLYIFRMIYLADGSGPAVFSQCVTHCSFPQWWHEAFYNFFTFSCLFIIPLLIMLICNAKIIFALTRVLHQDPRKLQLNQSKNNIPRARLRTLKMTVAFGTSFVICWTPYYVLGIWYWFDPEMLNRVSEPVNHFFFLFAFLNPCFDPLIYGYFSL
Type: cell-based
Procedure: Representative compounds of the present invention were evaluated in an in vitro test for LHRH antagonist potency (pA2). The test employed the method detailed in F. Haviv, et al. J. Med. Chem., 32:2340-2344 (1989). The values of pA2 are the negative logarithms of the concentration of the particular antagonist test compound required to shift the response curve produced by the agonist leuprolide to two-fold higher concentration. (Leuprolide is the LHRH agonist having the structure 5-oxo-Pro^1 -His^2 -Trp^3 -Ser^4 -Tyr^5 -D-Leu^6 -Leu^7 -Arg^8 -Pro^9 -NHEt and is disclosed and claimed in U.S. Pat. No. 4,005,063.) Typically pA2 values of 9.5 or greater are indicative of good LHRH antagonist potency, with values of 10.0 or greater being preferred.

Compound | Kb [nM]
CC(C)C[C@H](NC(=O)[C@@H](CCCNC(N)=O)NC(=O)[C@H](Cc1ccc(O)cc1)N(C)C(=O)[C@H](CO)NC(=O)[C@@H](Cc1cccnc1)NC(=O)[C@@H](Cc1ccc(Cl)cc1)NC(=O)[C@@H](Cc1ccc2ccccc2c1)NC(=O)NCCN1CCOCC1)C(=O)N[C@@H](CCCNC(=N)N)C(=O)N1CCC[C@H]1C(=O)N[C@H](C)C(N)=O [Example 8c, N-(Morpholinoethylaminocarbonyl)-D2Nal-D4ClPhe-D3Pal-Ser-NMeTyr-DCit-Leu-Arg-Pro-DAlaNH2] ({NH(2-morpholinoethyl)-CO}-[d2Nal][dPhe(4-Cl)][d3Pal]S[NMeY][dCit]LRP[dA]-NH2) | 0.049
CC(C)C[C@H](NC(=O)[C@@H](CCCNC(N)=O)NC(=O)[C@H](Cc1ccc(O)cc1)N(C)C(=O)[C@H](CO)NC(=O)[C@@H](Cc1cccnc1)NC(=O)[C@@H](Cc1ccc(Cl)cc1)NC(=O)[C@@H](Cc1ccc2ccccc2c1)NC(=O)N1CCN(C)CC1)C(=O)N[C@@H](CCCNC(=N)N)C(=O)N1CCC[C@H]1C(=O)N[C@H](C)C(N)=O [Example 8d, N-(N'-Methylpiperazinylcarbonyl)-D2Nal-D4ClPhe-D3Pal-Ser-NMeTyr-DCit-Leu-Arg-Pro-DAlaNH2] ({Piperazinyl(4-Me)-CO}-[d2Nal][dPhe(4-Cl)][d3Pal]S[NMeY][dCit]LRP[dA]-NH2) | 0.0398
CC(C)C[C@H](NC(=O)[C@@H](CCCNC(N)=O)NC(=O)[C@H](Cc1ccc(O)cc1)N(C)C(=O)[C@H](CO)NC(=O)[C@@H](Cc1cccnc1)NC(=O)[C@@H](Cc1ccc(Cl)cc1)NC(=O)[C@@H](Cc1ccc2ccccc2c1)NC(=O)NCc1ccccn1)C(=O)N[C@@H](CCCNC(=N)N)C(=O)N1CCC[C@H]1C(=O)N[C@H](C)C(N)=O [Example 8e, N-(2-Pyridyhnethylaminocarbonyl)-D2Nal-D4ClPhe-D3Pal- Ser-NMeTyr-DCit-Leu-Arg-Pro-DAlaNH2] ({NHCH2(2-pyridyl)-CO}-[d2Nal][dPhe(4-Cl)][d3Pal]S[NMeY][dCit]LRP[dA]-NH2) | 0.00676
CC(C)C[C@H](NC(=O)[C@@H](CCCNC(N)=O)NC(=O)[C@H](Cc1ccc(O)cc1)N(C)C(=O)[C@H](CO)NC(=O)[C@@H](Cc1cccnc1)NC(=O)[C@@H](Cc1ccc(Cl)cc1)NC(=O)[C@@H](Cc1ccc2ccccc2c1)NC(=O)NCc1cccnc1)C(=O)N[C@@H](CCCNC(=N)N)C(=O)N1CCC[C@H]1C(=O)N[C@H](C)C(N)=O [Example 8f, N-(3-Pyridyhnethylaminocarbonyl)-D2Nal-D4ClPhe-D3Pal-Ser-NMeTyr-DCit-Leu-Arg-Pro-DAlaNH2] ({NH(3-picolyl)-CO}-[d2Nal][dPhe(4-Cl)][d3Pal]S[NMeY][dCit]LRP[dA]-NH2) | 0.0363
CC(C)C[C@H](NC(=O)[C@@H](CCCNC(N)=O)NC(=O)[C@H](Cc1ccc(O)cc1)N(C)C(=O)[C@H](CO)NC(=O)[C@@H](Cc1cccnc1)NC(=O)[C@@H](Cc1ccc(Cl)cc1)NC(=O)[C@@H](Cc1ccc2ccccc2c1)NC(=O)NCCc1ccccn1)C(=O)N[C@@H](CCCNC(=N)N)C(=O)N1CCC[C@H]1C(=O)N[C@H](C)C(N)=O [Example 8g, N-(2-Pyridylethylaminocarbonyl)-D2Nal-D4ClPhe-D3Pal-Ser-NMeTyr-DCit-Leu-Arg-Pro-DAlaNH2] ({NH(2-(2-pyridyl)ethyl)-CO}-[d2Nal][dPhe(4-Cl)][d3Pal]S[NMeY][dCit]LRP[dA]-NH2) | 0.0178
